Data published in patent publication US20120014880A1, “METHOD FOR THE PREVENTION AND TREATMENT OF ESSENTIAL TREMOR BY REGULATING alpha1G T-TYPE CALCIUM CHANNEL OR BY T-TYPE CALCIUM CHANNEL BLOCKERS” (Korea Advanced Institute of Science and Technology, priority 2007, published 2012).

Test system: harmaline induced tremor
Test: Inhibition of harmaline induced tremor by T-type channel blockers, measured with tremor quantification apparatus
Assay type: in vivo, mouse
Text: In the screening method of the present invention, symptoms of essential tremor of step 3) are involuntary, regular movements of hands, arms, head, face, vocal band, trunk or legs. The symptoms can be checked by movement artifact of electroenphalograph (EEG) or tremor quantification apparatus, but not always limited thereto. The tremor quantification apparatus herein is to detect tremor of the mouse, in which stainless test cage is hung on the support and the bottom of the cage is attached with accelerometer connected with electric wire to analog-digital converter so that the generated analog signals can be converted into digital signals recognizable by computer. Thereby, tremor of the mouse can be measured by analyzing the digital signals recognized by computer. […] When the strength of oscillation for 5 seconds under the frequency of 10-18 Hz, that is the characteristic frequency of harmaline induced tremor, was at least 65 dB, it was diagnosed as tremor and the time point of break (onset), duration, strength, and the maximum frequency were all measured and compared between the wild type mice and the transgenic mice. The method for measuring tremor is developed on the basis of described method in the following references (Long M A. et al., J. Neurosci. 2002 Dec. 15, 22(24):10898-905; Milner, T E. et al., J. Neurophysiol. 1995 June, 73(6):2568-77).
The α1G−/−transgenic mice generated in Example 1 and the wild-type mice were administered with the tremor inducing agents, oxotremorine (0.3 mg/kg), penitrem A (1.0 mg/kg) and harmaline (9 mg/kg) respectively by intraperitoneal injection to induce tremor. Tremor was investigated by using movement artifact of electroenphalograph (EEG) and tremor quantification apparatus designed by the present inventors. […] The accelerometer was connected to analog-digital converter (Digidata1320, Axon instrument Inc) by electric wire so that the generated analog signals could be converted into digital signals recognizable by computer. Thereby, tremor of the mouse was measured by analyzing the digital signals recognized by computer. The accelerometer was quipped to the test cage where the animals were located, and the test cage was hung in the air. The level of tremor of the animal was quantified by measuring the oscillation of the test cage. […] When the strength of oscillation for 5 seconds under the frequency of 10-18 Hz, that is the characteristic frequency of harmaline induced tremor, was at least 65 dB, it was diagnosed as tremor and the time point of development of tremor (onset), duration, strength, and the maximum frequency were all measured and compared between the wild type mice and the knockout mice.
The wild-type mouse (α1G+/+) was administered with 10 mg/kg of mibefradil by intraperitoneal injection 30 minutes before harmaline injection to investigate the therapeutic effect of mibefradil on harmaline induced tremor. In the meantime, osmotic pump (Model 1002, 0.25 ul/hour, Alzet) containing 20 mM of mibefradil was inserted into the brain of the wild-type mouse (α1G+/+). Two days later, the therapeutic effect on harmaline induced tremor was investigated by using the tremor quantification apparatus of Example 2.
The wild-type mice (α1G+/+) were administered with 150 mg/kg and 300 mg/kg of ethosuximide by intraperitoneal injection 30 minutes before harmaline injection to investigate the therapeutic effect of ethosuximide on harmaline induced tremor. For the investigation, the tremor quantification apparatus of Example 2 was used.

[1] = wild-type mice (α1G+/+), 300 mg/kg intraperitoneal injection 30 minutes before harmaline injection

| SMILES | tremor inhibiting effect on harmaline induced tremor (wild-type mouse (α1G+/+), 10 mg/kg intraperitoneal injection 30 minutes before harmaline injection) | tremor inhibiting effect on harmaline induced tremor (wild-type mouse (α1G+/+), osmotic pump containing 20 mM, 0.25 ul/hour, directly into inferior olive (IO) of the brain, two days later) | tremor inhibiting effect on harmaline induced tremor (wild-type mice (α1G+/+), 150 mg/kg intraperitoneal injection 30 minutes before harmaline injection) | mice that did not exhibit oscillation, symptom of tremor [1] [%] | mice that showed tremor [1] [%] | tremor inhibiting effect on harmaline induced tremor [1] |
| --- | --- | --- | --- | --- | --- | --- |
| COCC(=O)O[C@]1(CCN(C)CCCc2nc3ccccc3[nH]2)CCc2cc(F)ccc2[C@@H]1C(C)C [mibefradil] | tremor inhibiting effect was not detected | tremor inhibiting effect was observed | – | – | – | – |
| CCC1(C)CC(=O)NC1=O (stereo not drawn) [ethosuximide] | – | – | tremor inhibiting effect was observed | 60 | 40 | tremor inhibiting effect was observed |
